Reference: patent US20220390459A1, “RAPID, HIGH-INTENSITY CHEMILUMINESCENT DIOXETANES” (Beckman Coulter, Inc., priority 2019, published 2022)

System: alkaline phosphatase
Test: Chemiluminescence intensity over time after combining the phosphate dioxetane with alkaline phosphatase solution
Assay type: biochemical
Settings: for profile of emission intensity over time (in words): alkaline phosphatase in 221 buffer, compound and TBE concentration differ per example; for intensity and speed of luminescence compared with other examples (in words): AP8, TBE enhancer in 221 buffer, concentrations differ per example
[1] = compound 0.125 mg/mL, TBE enhancer 2.5 mg/mL in 221 buffer, 100 μL + 10 μL AP8, 37° C.
[2] = compound 0.25 mg/mL, TBE enhancer 5 mg/mL in 221 buffer, 100 μL + 10 μL AP8, 37° C.
[3] = compound 0.2 mg/mL in 221 buffer without TBE enhancer, 100 μL + 10 μL AP9 [1.24E-20 mole/μL], 37° C.
[4] = compound 0.25 mg/mL, TBE enhancer 2.5 mg/mL in 221 buffer, 100 μL + 10 μL AP8, 37° C.
[5] = compound 1.25 mg/mL, TBE enhancer 5 mg/mL in 221 buffer, 100 μL + 10 μL AP8, 37° C.

Row | Structure (SMILES) | profile of emission intensity over time (in words) (37° C.) | intensity and speed of luminescence compared with other examples (in words) (37° C.) | time to reach maximum, steady-state intensity [2] [min] | Σ value [2] | also measured
1 | COC1(c2ccc(Cl)c(OP(=O)([O-])[O-])c2)OOC12C1CC3CC2CC(Cl)(C3)C1.[Na+].[Na+] (centres unmarked) [Example 13, reference compound] | slow and gradual increase in emission intensity | – | – | – | profile of emission intensity over time (in words) (37° C., listed as Tropix CDP-Star®): slow luminescence; time to reach maximum light intensity or steady-state plateau [1]: more than 15 minutes; Σ value [1]: 1.91E+05
2 | COC1(c2ccc(-c3cccs3)c(OP(=O)([O-])[O-])c2)OOC12C1CC3CC(C1)CC2C3.[Na+].[Na+] (centres unmarked) [Example 14] | rapid increase in intensity | higher intensity and faster response compared to the compound of Examples 12-13 | ≤ 1 | 9.97E+05 | –
3 | COC1(c2ccc(-c3ccsc3)c(OP(=O)([O-])[O-])c2)OOC12C1CC3CC(C1)CC2C3.[Na+].[Na+] (centres unmarked) [Example 15] | rapid increase in intensity | higher intensity and faster response compared to the compound of Examples 12-13 | ≤ 2 | 7.38E+05 | –
4 | COC1(c2ccc(-c3ccc(C#N)s3)c(OP(=O)([O-])[O-])c2)OOC12C1CC3CC(C1)CC2C3.[Na+].[Na+] (centres unmarked) [Example 17] | rapid increase in intensity | – | – | – | time to reach maximum, steady-state intensity [3]: ≤ 2 min; Σ value [3]: 2.77E+05
5 | C=Cc1ccc(C2(OC)OOC23C2CC4CC(C2)CC3C4)cc1OP(=O)([O-])[O-].[Na+].[Na+] (centres unmarked) [Example 16] | rapid increase in intensity | higher intensity and faster response compared to the compound of Examples 12-15 | – | – | time to reach maximum, steady-state intensity [4]: less than 3 minutes; Σ value [4]: 1.59E+06
6 | COC1(c2cccc(OP(=O)([O-])[O-])c2)OOC12C1CC3CC(C1)CC2C3.[Na+].[Na+] (centres unmarked) [Example 12, 4-methoxy-4-(3-phosphatephenyl)spiro[1,2-dioxetane-3,2′-adamantane], reference compound] | slow and gradual increase in emission intensity | – | – | – | profile of emission intensity over time (in words) (37° C., listed as Lumigen® PPD): slow luminescence; time to reach maximum light intensity or steady-state plateau [5]: more than 15 minutes; Σ value [5]: 2.27E+05
